The record followed here is US6538152B1, “Phenoxyacetic acid derivatives and medicinal compositions containing the same” (Kissei Pharmaceutical Co., Ltd., priority 1998, dated 2003).

The target in data set [1] is T1, β1-adrenoceptor (Rattus norvegicus, UniProt P18090).
T1 construct: Atria of male SD rats (250 to 400 g in body weight) were isolated; from tissue; host or cells: atria of male SD rats
The data set is described as follows: Experiment for measuring β1-adrenoceptor stimulating effects (heart rate increase in isolated rat atria, Magnus method). The format is cell-based. The following applies: isolated atria of male SD rats, 100% = increase after 10^−8M isoproterenol. As for the experimental part: Namely, the experiment was conducted using atria of rats according to the Magnus method. The increment of heart rate after addition of 10^−8M isoproterenol was expressed as 100%. A test compound was added cumulatively.
The Experiment for Measuring β1-adrenoceptor Stimulating Effects
Atria of male SD rats (250 to 400 g in body weight) were isolated and the experiment was conducted according to the Magnus method. The preparations with a tension of 0.5 g were exposed to Krebs-Henseleit solution maintained at 37° C. and gassed with a mixture of 95% oxygen and 5% carbon dioxide. The cardiac contractility was isometrically measured with a force-displacement transducer, and heart rate was recorded via a tachometer. A test compound was added cumulatively. Increase of heart rate per minute after addition of 10^−8M isoproterenol was expressed as 100%.

Data set [2] addresses T2, β2-adrenoceptor (Rattus norvegicus, UniProt P10608).
T2 construct: Uteri of pregnant SD rats (pregnancy day 21) were isolated; from tissue; host or cells: uterus (myometrium strips) of pregnant SD rats, day 21
Description: Experiment for measuring β2-adrenoceptor stimulating effects (inhibition of spontaneous contraction of isolated pregnant rat uterus, Magnus method). The format is cell-based. As to conditions: isolated uteri of pregnant SD rats (pregnancy day 21), sum of contractions during 5 minutes. As for the experimental part:
Also, uteri of pregnant rats were isolated and preparations were made. The experiment was conducted according to the Magnus method. The sum of uterine contractions during 5 minutes before addition of a test compound was expressed as 100%. The test compound was added cumulatively.
The Experiment for Measuring β2-adrenoceptor Stimulating Effects
Uteri of pregnant SD rats (pregnancy day 21) were isolated and longitudinal strips of approximately 15 mm in length and approximately 5 mm in width free from the basal plate were prepared. The experiment was conducted according to the Magnus method. The preparations with a tension of 0.5 g were exposed to Locke-Ringer solution maintained at 37° C. and gassed with a mixture of 95% oxygen and 5% carbon dioxide. Spontaneous contractions of myometrium were isometrically measured with a force-displacement transducer and recorded. A test compound was cumulatively added to the Magnus bath every 5 minutes.

For data set [3], the system named is male ICR rats. Description: Acute toxicity test. The format is in vivo, rat. As to conditions: male ICR rats of 4 weeks age, oral, 2 g/kg, during 24 hours after the administration, hydrochloride. As for the experimental part: Furthermore, the compounds represented by the above general formula (I) of the present invention are very safe.
To male ICR rats of 4 weeks age was administered orally ethyl 2-[2-chloro-4-[2-[[(1S,2R)-2-hydroxy-2-(4-hydroxyphenyl)1-methylethyl]amino]ethyl]phenoxy]acetate hydrochloride at a does of 2 g/kg.

The target in data set [4] is β3-adrenoceptor (Mustela putorius furo, UniProt M3YEU4). The data set is described as follows: Experiment for measuring β3-adrenoceptor stimulating effects (relaxation of isolated ferret urinary bladder smooth muscle, Magnus method). The format is cell-based. The following applies: read-out: EC50 value (concentration required to produce 50% of the relaxation of urinary bladder smooth muscle); isolated male ferret urinary bladder strips; 0% = maximal relaxation by 10^−5M forskolin. As for the experimental part:
Namely, urinary bladders of ferrets were isolated and preparations were made. The experiment was conducted according to the Magnus method. The […] tension without addition of a test compound is expressed as 100%, and the tension of maximal relaxation after addition of 10^−5M forskolin was expressed as 0%. The test compound was added cumulatively.
The Experiment for Measuring β3-adrenoceptor Stimulating Effects
Urinary bladders of male ferrets (1100 to 1400 g in body weight) were isolated and urinary bladder smooth muscle strips of approximately 10 mm in length and approximately 2 mm in width were prepared. The experiment was conducted according to the Magnus method. The preparations with a tension of 1 g were exposed to Krebs-Henseleit solution maintained at 37° C. and gassed with a mixture of 95% oxygen and 5% carbon dioxide. Basal tensions of urinary bladder were isometrically measured with a force-displacement transducer and recorded. A test compound was cumulatively added to the Magnus bath every about 5 minutes. Tension of urinary bladder smooth muscle before addition of the test compound was expressed as 100% and tension of maximal relaxation induced by 10^−5M of forskolin was expressed as 0%.

Counter-ions that a name gives are not always drawn. Like-named read-outs stand apart in the source and are kept apart here.

T1 sequence (P18090 whole entry): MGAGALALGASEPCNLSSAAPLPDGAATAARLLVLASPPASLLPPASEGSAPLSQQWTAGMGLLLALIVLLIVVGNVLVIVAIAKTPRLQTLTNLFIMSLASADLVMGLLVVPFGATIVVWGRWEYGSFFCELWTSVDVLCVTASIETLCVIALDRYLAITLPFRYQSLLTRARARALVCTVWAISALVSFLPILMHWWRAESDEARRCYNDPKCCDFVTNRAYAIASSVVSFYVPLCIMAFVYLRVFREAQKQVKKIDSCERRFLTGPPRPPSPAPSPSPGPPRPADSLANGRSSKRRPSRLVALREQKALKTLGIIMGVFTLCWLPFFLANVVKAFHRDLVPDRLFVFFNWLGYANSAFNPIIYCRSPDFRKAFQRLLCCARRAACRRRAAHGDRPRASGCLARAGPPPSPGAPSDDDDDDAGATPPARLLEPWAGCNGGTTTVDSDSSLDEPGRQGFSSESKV
T2 sequence (P10608 whole entry): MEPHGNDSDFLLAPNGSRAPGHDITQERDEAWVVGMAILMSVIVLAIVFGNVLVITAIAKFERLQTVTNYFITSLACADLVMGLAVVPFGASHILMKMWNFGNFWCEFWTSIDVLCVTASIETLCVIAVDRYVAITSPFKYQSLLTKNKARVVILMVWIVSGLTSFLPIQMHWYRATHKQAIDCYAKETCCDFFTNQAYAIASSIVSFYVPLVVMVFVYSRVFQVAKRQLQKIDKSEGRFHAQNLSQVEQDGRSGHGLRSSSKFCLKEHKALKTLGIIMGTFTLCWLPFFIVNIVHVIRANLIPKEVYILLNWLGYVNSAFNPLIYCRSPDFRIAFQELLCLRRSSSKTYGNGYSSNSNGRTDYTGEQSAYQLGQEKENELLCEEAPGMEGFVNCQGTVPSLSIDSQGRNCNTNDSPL
Sequence of β3-adrenoceptor (M3YEU4 1-435): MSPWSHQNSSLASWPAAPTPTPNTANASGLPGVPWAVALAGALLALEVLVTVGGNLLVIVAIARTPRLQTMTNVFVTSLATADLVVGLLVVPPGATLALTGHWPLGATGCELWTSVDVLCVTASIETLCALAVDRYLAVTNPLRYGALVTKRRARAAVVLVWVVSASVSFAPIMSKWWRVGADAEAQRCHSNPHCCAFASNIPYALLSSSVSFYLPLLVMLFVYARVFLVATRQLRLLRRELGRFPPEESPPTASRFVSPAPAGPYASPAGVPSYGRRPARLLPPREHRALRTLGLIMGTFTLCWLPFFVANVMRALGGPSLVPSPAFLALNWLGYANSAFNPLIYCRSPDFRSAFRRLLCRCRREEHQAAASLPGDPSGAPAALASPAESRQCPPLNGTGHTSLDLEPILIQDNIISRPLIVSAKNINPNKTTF

`COc1cc(CCN[C@@H](C)[C@H](O)c2ccc(O)cc2)ccc1OCC(=O)O` [Compound 29, 2-(4-[2-[[(1S,2R)-2-Hydroxy-2-(4-hydroxyphenyl)-1-methylethyl]amino]ethyl]-2-methoxyphenoxy]acetic acid]: the values for the EC50 in data set [1] and in data set [2] were above 100 µM and 3.9 µM, respectively.
In the case of `Cc1cc(OCC(=O)O)c(C)cc1CCN[C@@H](C)[C@H](O)c1ccc(O)cc1` [Compound 35, 2-[4-[2-[[(1S,2R)-2-Hydroxy-2-(4-hydroxyphenyl)-1-methylethyl]amino]ethyl]-2,5-dimethylphenoxy]acetic acid], the EC50 in data set [1] amounted to 38 µM; in data set [2] it was 1.8 µM.
Consider `C[C@H](NCCc1ccc(OCC(=O)O)c(O)c1)[C@H](O)c1ccc(O)cc1` [Compound 46, 2-[2-Hydroxy-4-[2-[[(1S,2R)-2-hydroxy-2-(4-hydroxyphenyl)-1-methylethyl]amino]ethyl]phenoxy]acetic acid], for which the EC50 stood at 21 µM in data set [1] and 0.21 µM in data set [2].
For the compound `C[C@H](NCCc1ccc(OCC(=O)O)c(Br)c1)[C@H](O)c1ccc(O)cc1` [Compound 24], the EC50 in data set [1] is above 100 µM; in data set [2], 10 µM.
For the compound `CCOC(=O)COc1ccc(CCN[C@@H](C)[C@H](O)c2ccc(O)cc2)cc1Cl.Cl` [Compound 48, Ethyl 2-[2-chloro-4-[2-[[(1S,2R)-2-hydroxy-2-(4-hydroxyphenyl)-1-methylethyl]amino]ethyl]phenoxy]acetate hydrochloride], in data set [1], the EC50 was 17 µM. Moreover, the “Death of animals (acute toxicity)” value in data set [3] (listed as ethyl 2-[2-chloro-4-[2-[[(1S,2R)-2-hydroxy-2-(4-hydroxyphenyl)1-methylethyl]amin) was “No death of animals was observed”; in data set [3] (listed as ethyl 2-[2-chloro-4-[2-[[(1S,2R)-2-hydroxy-2-(4-hydroxyphenyl)-1-methylethyl]ami) it was “no death was observed”.
In the case of `C[C@H](NCCc1ccc(OCC(=O)O)c(C#N)c1)[C@H](O)c1ccc(O)cc1` [Compound 37, 2-[2-Cyano-4-[2-[[(1S,2R)-2-hydroxy-2-(4-hydroxyphenyl)-1-methylethyl]amino]ethyl]phenoxy]acetic acid], the figures for the EC50 in data set [1] and in data set [2] were 33 µM and 76 µM, respectively.
With `C[C@H](NCCc1ccc(OCC(=O)O)c(F)c1)[C@H](O)c1ccc(O)cc1` [Compound 28, 2-[2-Fluoro-4-[2-[[(1S,2R)-2-hydroxy-2-(4-hydroxyphenyl)-1-methylethyl]amino]ethyl]phenoxy]acetic acid], the EC50 amounted to 30 µM in data set [1] and 1.8 µM in data set [2].
Consider `C[C@H](NCCc1ccc(OCC(=O)O)c(Cl)c1)[C@H](O)c1ccc(O)cc1` [Compound 25, 2-[2-Chloro-4-[2-[[(1S,2R)-2-hydroxy-2-(4-hydroxyphenyl)-1-methylethyl]amino]ethyl]phenoxy]acetic acid], for which, in data set [1], the EC50 came to 70 µM.
Regarding `C[C@H](NCCc1ccc(OCC(=O)O)c(C(=O)N(C)C)c1)[C@H](O)c1ccc(O)cc1` [Compound 43, 2-[2-(Dimethylaminocarbonyl)-4-[2-[[(1S,2R)-2-hydroxy-2-(4-hydroxyphenyl)-1-methylethyl]amino]ethyl]phenoxy]acetic acid], the EC50 in data set [1] came out at 58 µM; in data set [2], 53 µM.
For `C[C@H](NCCc1ccc(OCC(=O)O)c(N(C)C)c1)[C@H](O)c1ccc(O)cc1` [Compound 47, 2-[2-Dimethylamino-4-[2-[[(1S,2R)-2-hydroxy-2-(4-hydroxyphenyl)-1-methylethyl]amino]ethyl]phenoxy]acetic acid], the EC50 in data set [1] was above 100 µM; in data set [2], 17 µM.
On the same counts, the results for `C[C@H](NCCc1ccc(OCC(=O)O)c([N+](=O)[O-])c1)[C@H](O)c1ccc(O)cc1` [Compound 38, 2-[4-[2-[[(1S,2R)-2-Hydroxy-2-(4-hydroxyphenyl)-1-methylethyl]amino]ethyl]-2-nitrophenoxy]acetic acid] are 58 µM and 2.6 µM.
As to `C[C@H](NCCc1cc(Cl)c(OCC(=O)O)c(Cl)c1)[C@H](O)c1ccc(O)cc1` [Compound 26], the results for the EC50 in data set [1] and in data set [2] were above 100 µM and 1.4 µM, respectively.
Turning to `C[C@H](NCCc1cc(Cl)c(OCC(=O)O)cc1Cl)[C@H](O)c1ccc(O)cc1` [Compound 27, 2-[2,5-Dichloro-4-[2-[[(1S,2R)-2-hydroxy-2-(4-hydroxyphenyl)-1-methylethyl]amino]ethyl]phenoxy]acetic acid], the EC50 in data set [1] was 49 µM; in data set [2], 0.49 µM.
On the same counts, the results for `Cc1cc(CCN[C@@H](C)[C@H](O)c2ccc(O)cc2)ccc1OCC(=O)O` [Compound 33] are 31 µM and 13 µM.
For the compound `CCOC(=O)COc1cc(Cl)c(CCN[C@@H](C)[C@H](O)c2ccc(O)cc2)cc1Cl` [Compound 49, Ethyl 2-[2,5-dichloro-4-[2-[[(1S,2R)-2-hydroxy-2-(4-hydroxyphenyl)-1-methylethyl]amino]ethyl]phenoxy]acetate hydrochloride], the results for the EC50 in data set [1] and in data set [2] were 6.8 µM and 0.061 µM, respectively.
Turning to `CCOc1cc(CCN[C@@H](C)[C@H](O)c2ccc(O)cc2)ccc1OCC(=O)O` [Compound 30, 2-[2-Ethoxy-4-[2-[[(1S,2R)-2-hydroxy-2-(4-hydroxyphenyl)-1-methylethyl]amino]ethyl]phenoxy]acetic acid], the EC50 in data set [1] was above 100 µM; in data set [2] it was 25 µM.
On to `C[C@H](Cc1ccc(OCC(=O)O)cc1)NC[C@H](O)c1cccc(Cl)c1` [(R,R)-BRL-37344, reference compound], for which the values for the EC50 in data set [4], in data set [1] (read-out: EC50 value (concentration required to produce 50% increase of heart rate per minute)) and in data set [2] (read-out: EC50 value (concentration required to produce 50% of the inhibition of uterine contraction)) were 0.0016 µM, 0.27 µM and 0.009 µM, respectively.
For `C[C@H](NCCc1ccc(OCC(=O)O)c(C(F)(F)F)c1)[C@H](O)c1ccc(O)cc1` [Compound 36, 2-[4-[2-[[(1S,2R)-2-Hydroxy-2-(4-hydroxyphenyl)-1-methylethyl]amino]ethyl]-2-(trifluoromethyl)phenoxy]acetic acid hydrochloride], the EC50 in data set [1] was above 100 µM; in data set [2], 20 µM.
As for `C[C@H](NCCc1ccc(OCC(=O)O)c(OCc2ccccc2)c1)[C@H](O)c1ccc(O)cc1` [Compound 31, 2-[2-Benzyloxy-4-[2-[[(1S,2R)-2-hydroxy-2-(4-hydroxyphenyl)-1-methylethyl]amino]ethyl]phenoxy]acetic acid], the EC50 was above 100 µM in data set [1] and 1.9 µM in data set [2].
As for `CCOC(=O)COc1ccc(CCN[C@@H](C)[C@H](O)c2ccc(O)cc2)cc1NC=O` [Compound 40, Ethyl 2-[2-Formylamino-4-[2-[[(1S,2R)-2-hydroxy-2-(4-hydroxyphenyl)-1-methylethyl]amino]ethyl]phenoxy]acetate], the EC50 was determined as 3.5 µM in data set [1] and 1 µM in data set [2].
